{
  "source": "paper PMC8071537",
  "key": {"[1]": {"test": "Pharmacokinetics of oral TPT in rats with zosuquidar and/or Ko143 (Table S2)", "conditions": "TPT 20 mg/kg PO + Ko143 10 mg/kg", "procedure": "In the modified Taxol® formulation, TPT was prepared at a concentration of 2 mg/mL\nTPT was also dissolved in isotonic saline at a concentration of\nTween® 80 was dissolved in\nOral Administration and Plasma Sampling\nclaims in published maps and institu-for the oral administration of TPT (20 mg/kg) with or without zosuquidar (25 mg/kg),\nformulation. After drug administration, blood sampling was performed at 0, 0.05, 0.12,\nThe SD rats (male, 7‒8-weeks old, 235‒265 g) were divided into four groups (n = 6‒\nBlood sampling was done at 0, 0.033, 0.083,\nPheonix WinNonlin ® software (version 8.0–8.1, Pharsight Corporation, Mountain\nView, CA, USA) was used to estimate the PK parameters following oral TP T administra-\ntion in rats. Non-compartmental analysis was performed using the plasma TPT concen-\ntration–time profiles to obtain the following PK parameters: initial plasma concentration\n(C0), area under the plasma concentration–time curve from zero to infinity (AUCINF), elim-\nination half-life (t1/2), apparent volume of distribution (Vd) after oral administration (Vd/F),\ntotal clearance (Clt), and total oral clearance (Clt/F). The maximum plasma concentration\n(Cmax) and the time required to reach Cmax (Tmax) were directly determined from the plasma\nTPT concentration–time curve. The absolute BA (AB) and the relative BA (RB) of TPT were"}, "[2]": {"test": "in vivo", "conditions": "male, Sprague-Dawley, rat, po, 20 mg/kg", "procedure": "(§1) For PK studies, the carotid artery in healthy SD rats (male, 7‒8 weeks, 220‒298 g) was catheterized one day before drug administration [29, 30, 31, 32]. Four to six rats were grouped for the oral administration of TPT (20 mg/kg) with or without compounds (2 mg/kg) in the modified Taxol® formulation and the same dose of TPT in saline only.\n(§2) The samples were chromatographically separated using a Capcell Pak C18 UG120 column (4.6 mm × 250 mm, 5 μm, Osaka Soda Co. Ltd., Osaka, Japan) with the mobile phase composed of 10 mM phosphate buffer containing 1% triethylamine (TEA) (pH 3.5) and methanol containing 1% TEA (pH 6.5) (56/44, v/v) at a flow rate of 1.0 mL/min for 30 min and detected at an excitation wavelength of 381 nm and an emission wavelength of 527 nm. The injection volume was 50 μL.\n(§3) Pheonix WinNonlin® software (version 8.1, Pharsight Corporation, Mountain View, CA, USA) was used to estimate the PK parameters following oral TPT administration to rats. Non-compartmental analysis was performed using the plasma TPT concentration–time profiles to obtain the following PK parameters: area under the plasma concentration–time curve from zero to infinity (AUCINF), elimination half-life (t1/2), apparent volume of distribution after oral administration (Vd/F), and total oral clearance (Clt/F). The maximum plasma concentration (Cmax) and the time required to reach Cmax (Tmax) were directly measured from the plasma TPT concentration–time curve. The relative BA (RB) of TPT was calculated using the Equation (1):RB (%) = (AUCINF po co-administration)/(AUCINF po control) × 100(1)"}, "[3]": {"parameters": "method as in PMID 8853931", "conditions": "lactone moiety converted to carboxylated open-ring form; cited from earlier work"}, "[4]": {"tested_on": "CYP1A2, CYP2A6, CYP2C8/9, CYP2C19, CYP2D6, CYP2E, CYP3A, or CYP4A", "parameters": "method as in earlier work", "conditions": "According to GlaxoSmithKline; cited from earlier work"}, "[5]": {"test": "Pharmacokinetics of oral TPT in rats with or without dual inhibitor candidates or formulation", "conditions": "male, Sprague-Dawley, rat, in vivo, 20 mg/kg", "procedure": "as §1, §2, §3"}, "[6]": {"parameters": "method as in PMID 8853931", "conditions": "humans; cited from earlier work"}, "[7]": {"target": "T1, P-gp (Homo sapiens, UniProt P08183)", "T1 sequence (P08183 whole entry)": "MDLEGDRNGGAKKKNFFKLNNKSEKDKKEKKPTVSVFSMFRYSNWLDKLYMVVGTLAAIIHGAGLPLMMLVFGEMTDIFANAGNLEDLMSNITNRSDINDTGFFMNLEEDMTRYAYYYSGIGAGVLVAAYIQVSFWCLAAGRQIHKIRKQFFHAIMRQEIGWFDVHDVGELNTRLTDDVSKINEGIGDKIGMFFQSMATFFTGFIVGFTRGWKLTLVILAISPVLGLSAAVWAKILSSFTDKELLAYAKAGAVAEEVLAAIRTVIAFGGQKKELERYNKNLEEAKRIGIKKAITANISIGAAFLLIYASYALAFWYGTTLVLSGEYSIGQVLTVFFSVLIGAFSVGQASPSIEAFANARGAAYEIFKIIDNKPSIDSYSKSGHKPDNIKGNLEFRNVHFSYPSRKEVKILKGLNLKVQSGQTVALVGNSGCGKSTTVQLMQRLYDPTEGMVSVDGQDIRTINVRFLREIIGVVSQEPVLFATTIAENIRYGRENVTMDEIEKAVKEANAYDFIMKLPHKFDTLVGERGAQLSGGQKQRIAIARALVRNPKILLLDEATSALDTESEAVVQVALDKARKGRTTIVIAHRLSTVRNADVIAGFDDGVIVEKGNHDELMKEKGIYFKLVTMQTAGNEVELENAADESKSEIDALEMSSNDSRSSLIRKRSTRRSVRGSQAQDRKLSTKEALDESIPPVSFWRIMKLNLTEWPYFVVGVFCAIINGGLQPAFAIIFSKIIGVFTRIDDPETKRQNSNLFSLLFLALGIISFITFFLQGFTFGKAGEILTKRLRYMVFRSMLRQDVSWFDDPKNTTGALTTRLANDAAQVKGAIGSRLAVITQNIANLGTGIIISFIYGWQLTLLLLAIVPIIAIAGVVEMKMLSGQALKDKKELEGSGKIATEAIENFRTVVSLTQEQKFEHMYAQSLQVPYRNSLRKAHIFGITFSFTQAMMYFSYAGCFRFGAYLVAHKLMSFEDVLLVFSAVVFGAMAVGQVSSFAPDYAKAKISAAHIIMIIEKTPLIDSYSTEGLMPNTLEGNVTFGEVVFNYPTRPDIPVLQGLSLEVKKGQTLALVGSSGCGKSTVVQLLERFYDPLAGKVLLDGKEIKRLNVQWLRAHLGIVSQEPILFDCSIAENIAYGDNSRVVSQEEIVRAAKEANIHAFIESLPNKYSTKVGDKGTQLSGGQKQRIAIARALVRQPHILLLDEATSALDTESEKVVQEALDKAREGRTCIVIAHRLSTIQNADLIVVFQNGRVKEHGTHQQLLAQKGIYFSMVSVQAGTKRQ", "test": "TPT accumulation by flow cytometry in P-gp-overexpressing MCF-7/ADR cells", "conditions": "200 μM TPT, 30 min, vs TPT-only; zosuquidar/Ko143 1 μM", "method": "In this study, the cells were treated with TPT or DNR after incubation with the P-gp and/or BCRP inhibitor candidates or with the excipients for 5 min. When the incubation was complete, the medium containing the substrate and inhibitor candidate or excipient was removed, and the cells were resuspended in cold phosphate buffer saline (PBS) (500 μL). TPT accumulation in the cells was measured using a flow cytometer (NovoCyte 2060R, ACEA Biosciences Inc., San Diego, CA, USA). The mean fluorescence intensity values were calculated, and at least three independent biological duplicates were performed."}, "[8]": {"target": "T1, P-gp", "conditions": "10 μM DNR, 30 min, vs DNR-only control; zosuquidar 1 μM", "procedure": "In this study, the cells were treated with TPT or DNR after incubation with the P-gp and/or BCRP inhibitor candidates or with the excipients for 5 min. When the incubation was complete, the medium containing the substrate and inhibitor candidate or excipient was removed, and the cells were resuspended in cold phosphate buffer saline (PBS) (500 μL). […] The mean fluorescence intensity values were calculated, and at least three independent biological duplicates were performed.\nSubstrate Drug Accumulation Study by Flow Cytometry\nN.Y.; Sivaraman, A.; Naik, R.; Jin, μL) with 10 μM DNR in the presence and/or absence of 1 μM zosuquidar for 30 min or\nTPT accumulation in cells resuspended in cold PBS"}, "[9]": {"conditions": "in vivo, 10 mg/kg; cited from earlier work"}},
  "note": "Like-named read-outs stand apart in the source and are kept apart here.",
  "data": [
    {"molecule": "COc1ccc2c3c([nH]c2c1)[C@H](CC(C)C)N1C(=O)[C@H](CCC(=O)OC(C)(C)C)NC(=O)[C@@H]1C3", "note": "[Ko143]", "values": [
      {"measurement": "enhanced absorption of TPT", "setting": "[1]", "value": ">two-fold"}
    ]},
    {"molecule": "CC[C@@]1(O)C(=O)OCc2c1cc1n(c2=O)Cc2cc3c(CN(C)C)c(O)ccc3nc2-1", "note": "[TPT, Topotecan]", "values": [
      {"measurement": "AUC(0-inf)", "setting": "[2]", "value": "2.36 ± 0.543", "unit": "µg·h/mL"},
      {"measurement": "Cmax", "setting": "[2]", "value": "0.727 ± 0.265", "unit": "µg/mL"},
      {"measurement": "Tmax", "setting": "[2]", "value": "0.5 to 1", "unit": "h"},
      {"measurement": "stability under physiological pH", "setting": "[3]", "value": "unstable"},
      {"measurement": "in vitro activity of CYP1A2, CYP2A6, CYP2C8/9, CYP2C19, CYP2D6, CYP2E, CYP3A, or CYP4A", "setting": "[4]", "value": "does not alter"},
      {"measurement": "Vd/F", "setting": "[5]", "value": "42.1 ± 14.1", "unit": "L"},
      {"measurement": "half-life", "setting": "[5]", "value": "3.39 ± 1.09", "unit": "h"},
      {"measurement": "half-life", "setting": "[6]", "value": 3, "unit": "h"},
      {"measurement": "hepatic metabolism: amount of N-desmethyl TPT (of the total amount)", "setting": "[6]", "value": "< 7", "unit": "%"},
      {"measurement": "oral BA of active TPT", "setting": "[6]", "value": "approximately 35%"},
      {"measurement": "renal excretion (of the total administered dose)", "setting": "[6]", "value": "approximately 40%"}
    ]},
    {"molecule": "O[C@@H](COc1cccc2ncccc12)CN1CCN([C@@H]2c3ccccc3[C@@H]3[C@H](c4ccccc42)C3(F)F)CC1", "note": "[zosuquidar, Zosuquidar]", "values": [
      {"measurement": "TPT accumulation in ADR cells", "setting": "[7]", "value": "no significant difference"},
      {"measurement": "increase in DNR accumulation in P-gp-overexpressing cells", "setting": "[8]", "value": "approximately three-fold increase"}
    ]},
    {"molecule": "silymarin", "values": [
      {"measurement": "Vd/F and Clt/F of PTX", "setting": "[9]", "value": "decreased"}
    ]}
  ]
}
